Series [1] addresses T1, human mitochondrial RNA polymerase (POLRMT) (Homo sapiens, UniProt O00411). In words: biochemical.
A further series deals with DNA Pol γ (Homo sapiens, UniProt P54098). In words: human DNA polymerase inhibition assay. It is filed as biochemical.
Series [2] deals with T1, human mitochondrial RNA polymerase (POLRMT). The experiment in a line: single nucleotide incorporation rate assay. In kind it is biochemical.
The target in the next series is DNA Pol α (Homo sapiens, UniProt P09884). In words: human DNA polymerase inhibition assay. It is filed as biochemical.
The next series deals with LLC-MK2. The settings on record: monkey, llc-mk2 cells.
Series [3] deals with Human metapneumovirus hMPV A1. In words: microbe, parasite or virus in culture. The settings on record: LLC-MK2, read-out: hMPV A1 EC50 (µM).
Series [4] concerns Influenza A virus FluA H1N1. The experiment in a line: microbe, parasite or virus in culture. The settings on record: H1N1, MDCK, read-out: FluA H1N1 EC50 (µM).
For series [5], the system named is Human rhinovirus B14 RV-B 14. The experiment in a line: microbe, parasite or virus in culture. The settings on record: H1-HeLa, read-out: RV EC50 (µM).
In series [6] the test system is EV-D68. Particulars: read-out: RD CC50; human, rd cells.
Another series concerns Enterovirus A71 EV-71. The experiment in a line: microbe, parasite or virus in culture. Particulars: Enterovirus A, EV71, RD, read-out: EV EC50 (µM).
In series [7] the test system is EV-D68. In words: microbe, parasite or virus in culture. The settings on record: Enterovirus D, EVD68, RD, read-out: EV EC50 (µM).
The subject of series [8] is Human rhinovirus A16 RV-A 16. The settings on record: read-out: H1 HeLa CC50, h1 hela cells, 96 h.
A short description of a further series: in vitro. The settings on record: human, a549-hace2 cells.
Another series has as its system MDCK. Particulars: read-out: MDCK CC50, dog.
In series [9] the test system is Human rhinovirus A16 RV-A 16. In words: microbe, parasite or virus in culture. Particulars: H1-HeLa, read-out: RV EC50 (µM).

Bounds are passed on as bounds.

T1 sequence (O00411 42-1230): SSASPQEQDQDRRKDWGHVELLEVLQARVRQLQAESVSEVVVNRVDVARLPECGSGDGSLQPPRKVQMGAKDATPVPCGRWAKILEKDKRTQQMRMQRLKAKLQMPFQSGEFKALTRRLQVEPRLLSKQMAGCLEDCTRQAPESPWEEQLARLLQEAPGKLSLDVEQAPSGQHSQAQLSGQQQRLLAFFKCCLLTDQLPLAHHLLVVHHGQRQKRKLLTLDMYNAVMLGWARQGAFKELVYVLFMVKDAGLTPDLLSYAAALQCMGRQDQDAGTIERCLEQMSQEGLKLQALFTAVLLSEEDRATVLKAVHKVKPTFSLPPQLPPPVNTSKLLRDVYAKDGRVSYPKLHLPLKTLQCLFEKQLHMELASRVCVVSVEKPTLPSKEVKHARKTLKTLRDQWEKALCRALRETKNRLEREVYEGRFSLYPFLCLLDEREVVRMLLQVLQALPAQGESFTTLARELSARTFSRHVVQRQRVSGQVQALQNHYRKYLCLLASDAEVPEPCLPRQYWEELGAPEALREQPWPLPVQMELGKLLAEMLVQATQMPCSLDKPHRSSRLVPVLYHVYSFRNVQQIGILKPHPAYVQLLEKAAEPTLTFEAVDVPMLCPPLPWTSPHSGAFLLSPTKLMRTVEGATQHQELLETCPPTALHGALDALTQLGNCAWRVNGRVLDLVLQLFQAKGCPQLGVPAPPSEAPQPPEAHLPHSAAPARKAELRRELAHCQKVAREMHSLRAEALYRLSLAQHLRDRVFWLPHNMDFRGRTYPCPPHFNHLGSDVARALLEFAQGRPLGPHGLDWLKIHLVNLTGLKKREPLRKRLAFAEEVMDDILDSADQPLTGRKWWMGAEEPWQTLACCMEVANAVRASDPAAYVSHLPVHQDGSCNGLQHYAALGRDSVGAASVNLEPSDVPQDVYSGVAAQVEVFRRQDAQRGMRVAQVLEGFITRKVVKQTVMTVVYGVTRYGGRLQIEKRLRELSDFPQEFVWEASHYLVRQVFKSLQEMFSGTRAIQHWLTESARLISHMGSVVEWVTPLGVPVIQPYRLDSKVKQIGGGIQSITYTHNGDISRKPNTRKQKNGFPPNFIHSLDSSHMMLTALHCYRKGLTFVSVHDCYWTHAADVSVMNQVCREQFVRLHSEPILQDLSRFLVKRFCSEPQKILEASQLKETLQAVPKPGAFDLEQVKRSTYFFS
Chain of DNA Pol α (P09884 whole entry): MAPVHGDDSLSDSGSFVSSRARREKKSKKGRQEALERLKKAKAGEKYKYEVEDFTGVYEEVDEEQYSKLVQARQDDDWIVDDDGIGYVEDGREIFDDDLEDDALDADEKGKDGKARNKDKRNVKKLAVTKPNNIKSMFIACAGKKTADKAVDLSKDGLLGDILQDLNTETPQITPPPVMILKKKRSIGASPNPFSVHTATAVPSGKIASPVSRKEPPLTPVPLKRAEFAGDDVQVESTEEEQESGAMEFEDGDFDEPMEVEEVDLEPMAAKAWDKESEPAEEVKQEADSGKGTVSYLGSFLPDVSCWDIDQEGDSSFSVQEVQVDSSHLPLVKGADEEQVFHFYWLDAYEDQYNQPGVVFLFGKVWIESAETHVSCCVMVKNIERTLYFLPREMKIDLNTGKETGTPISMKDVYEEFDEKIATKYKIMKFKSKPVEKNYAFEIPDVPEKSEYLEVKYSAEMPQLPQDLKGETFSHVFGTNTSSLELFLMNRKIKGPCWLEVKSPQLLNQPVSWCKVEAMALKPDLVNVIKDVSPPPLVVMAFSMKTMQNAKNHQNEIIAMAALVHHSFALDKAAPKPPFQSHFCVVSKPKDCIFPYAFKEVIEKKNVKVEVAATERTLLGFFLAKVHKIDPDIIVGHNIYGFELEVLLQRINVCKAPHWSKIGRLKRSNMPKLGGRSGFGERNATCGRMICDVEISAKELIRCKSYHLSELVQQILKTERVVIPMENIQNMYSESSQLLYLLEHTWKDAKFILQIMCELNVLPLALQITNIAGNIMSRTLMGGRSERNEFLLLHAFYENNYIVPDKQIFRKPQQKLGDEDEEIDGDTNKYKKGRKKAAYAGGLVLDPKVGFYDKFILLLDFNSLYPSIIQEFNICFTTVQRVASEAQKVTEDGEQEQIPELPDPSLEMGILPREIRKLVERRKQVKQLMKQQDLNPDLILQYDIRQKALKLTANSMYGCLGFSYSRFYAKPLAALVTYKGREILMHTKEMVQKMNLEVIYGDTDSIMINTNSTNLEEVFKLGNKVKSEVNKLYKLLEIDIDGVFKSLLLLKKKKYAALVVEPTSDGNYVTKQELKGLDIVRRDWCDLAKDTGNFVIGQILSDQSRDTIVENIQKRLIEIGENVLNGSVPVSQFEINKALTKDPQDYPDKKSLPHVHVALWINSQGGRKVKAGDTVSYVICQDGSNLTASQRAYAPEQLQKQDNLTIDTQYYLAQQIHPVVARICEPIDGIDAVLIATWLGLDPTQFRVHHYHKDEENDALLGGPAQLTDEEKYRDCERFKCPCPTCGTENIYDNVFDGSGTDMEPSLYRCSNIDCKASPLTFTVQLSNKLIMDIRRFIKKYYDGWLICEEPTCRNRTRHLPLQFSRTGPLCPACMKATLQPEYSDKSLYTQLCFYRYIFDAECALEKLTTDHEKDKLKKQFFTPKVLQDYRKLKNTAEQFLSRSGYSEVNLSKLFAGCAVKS
Chain of DNA Pol γ (Q9UHN1 26-485): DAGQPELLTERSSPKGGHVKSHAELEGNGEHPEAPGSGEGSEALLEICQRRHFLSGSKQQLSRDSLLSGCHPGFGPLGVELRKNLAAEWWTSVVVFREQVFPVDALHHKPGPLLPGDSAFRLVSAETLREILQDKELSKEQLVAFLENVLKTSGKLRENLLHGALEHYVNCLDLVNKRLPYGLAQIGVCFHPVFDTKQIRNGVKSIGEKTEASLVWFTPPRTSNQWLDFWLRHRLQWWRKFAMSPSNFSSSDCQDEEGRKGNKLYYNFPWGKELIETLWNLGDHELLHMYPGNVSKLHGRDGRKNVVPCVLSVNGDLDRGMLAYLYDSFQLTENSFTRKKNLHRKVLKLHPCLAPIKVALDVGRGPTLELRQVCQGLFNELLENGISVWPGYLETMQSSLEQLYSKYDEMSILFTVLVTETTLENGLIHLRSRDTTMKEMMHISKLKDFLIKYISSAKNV
Chain of DNA Pol γ (P54098 whole entry): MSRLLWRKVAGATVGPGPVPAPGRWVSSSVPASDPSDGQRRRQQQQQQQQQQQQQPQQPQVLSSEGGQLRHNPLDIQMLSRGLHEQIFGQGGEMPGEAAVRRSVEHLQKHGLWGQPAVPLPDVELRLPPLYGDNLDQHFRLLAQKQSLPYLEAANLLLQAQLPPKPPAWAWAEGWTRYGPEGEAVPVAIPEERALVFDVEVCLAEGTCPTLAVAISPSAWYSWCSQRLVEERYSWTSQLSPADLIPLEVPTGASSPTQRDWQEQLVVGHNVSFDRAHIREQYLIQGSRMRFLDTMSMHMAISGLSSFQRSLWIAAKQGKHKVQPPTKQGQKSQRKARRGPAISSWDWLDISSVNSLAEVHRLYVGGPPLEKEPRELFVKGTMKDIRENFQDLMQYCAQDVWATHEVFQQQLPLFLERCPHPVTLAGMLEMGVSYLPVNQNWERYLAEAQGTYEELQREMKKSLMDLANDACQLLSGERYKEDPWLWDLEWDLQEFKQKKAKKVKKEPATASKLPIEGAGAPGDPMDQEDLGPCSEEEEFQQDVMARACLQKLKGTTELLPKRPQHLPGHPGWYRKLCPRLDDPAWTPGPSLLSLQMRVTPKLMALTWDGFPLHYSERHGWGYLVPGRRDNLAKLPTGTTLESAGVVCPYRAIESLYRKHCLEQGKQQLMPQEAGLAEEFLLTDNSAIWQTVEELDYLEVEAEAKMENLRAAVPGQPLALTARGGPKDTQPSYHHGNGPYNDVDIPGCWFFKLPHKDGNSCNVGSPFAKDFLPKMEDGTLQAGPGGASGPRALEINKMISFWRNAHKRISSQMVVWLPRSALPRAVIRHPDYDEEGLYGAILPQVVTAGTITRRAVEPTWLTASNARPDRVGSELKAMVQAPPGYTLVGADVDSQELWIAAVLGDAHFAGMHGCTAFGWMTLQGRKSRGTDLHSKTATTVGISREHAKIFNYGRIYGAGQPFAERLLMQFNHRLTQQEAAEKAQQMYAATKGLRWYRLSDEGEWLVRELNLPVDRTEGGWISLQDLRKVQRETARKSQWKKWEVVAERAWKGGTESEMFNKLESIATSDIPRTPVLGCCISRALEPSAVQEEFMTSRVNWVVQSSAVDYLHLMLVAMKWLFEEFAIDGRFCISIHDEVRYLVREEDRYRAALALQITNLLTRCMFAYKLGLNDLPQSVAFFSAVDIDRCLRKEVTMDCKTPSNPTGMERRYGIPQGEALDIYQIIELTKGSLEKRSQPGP

As for `N#C[C@]1(COP(=O)(O)OP(=O)(O)OP(=O)(O)O)O[C@@H](c2ccc3c(N)ncnn23)[C@H](O)[C@@H]1O` [2-NTP, ((2R,3S,4R,5S)-5-(4-Aminopyrrolo[2,1-f][1,2,4]triazin-7-yl)-2-cyano-3,4-dihydroxytetrahydrofuran-2-yl)methyl triphosphate], the IC50 (in series [1]; against DNA Pol γ; against DNA Pol α) was > 200 µM in each case. In addition, the SNIR in [2] worked out at 0.8%.

In the case of `COC(=O)[C@H](C)N[P@](=O)(OC[C@@]1(C#N)O[C@@H](c2ccc3c(N)ncnn23)[C@H](OC(=O)C(C)C)[C@@H]1OC(=O)C(C)C)Oc1ccccc1` [compound 1, GS-7682], the CC50 in the series on LLC-MK2 was > 2 µM; with EV-D68 [6], > 2 µM; in series [8], 22.2 ± 6.3 µM; in the series with MDCK, > 2 µM. The EC50 in [3] is 0.21 ± 0.05 µM; in [4], > 2 µM; in series [5], 0.054 ± 0.002 µM; in the series with Enterovirus A71 EV-71, 0.083 ± 0.035 µM; with EV-D68 [7], 0.09 ± 0.06 µM; in series [9], 0.061 ± 0.006 µM. Moreover, in the series “in vitro”, the CC50 at 28 h turned out to be 21.1 ± 4.4 µM.

Usually IC50 stands for the concentration needed to halve the response being measured. A high value points to lower potency. In general, EC50 refers to the concentration that produces a half-maximal response.

The values are drawn from paper doi:10.1101/2024.04.17.589937v1 (biorxiv, 2024).
